# Tests used:
# [1] = system: Control-aptamer (DNA, single strand, phosphorothioate linkages (positions as in ref 24)) TTCGGCCTGGGGGCGGCCAGTTCGGGTCCAGTCGCGGGAG; test: quartz crystal microbalance (27 MHz); details: immobilised compound; highest concentration not stated
# [2] = system: AGE-aptamer (DNA, aptamer, phosphorothioate linkages (positions drawn in Figure 3A)) TGTAGCCCGAGTATCATTCTCCATCGCCCCCAGATACAAG; test: quartz crystal microbalance (27 MHz), curve fitting; details: aptamer immobilised, GLAP added; not affected by 2% fetal bovine serum
# [3] = system: GLAP-aptamer (DNA, aptamer, phosphorothioate linkage at each three bases (exact positions drawn in Figure 1C)) GCGGGTTGGGAGCCACTAGTAGCAACGTGCGACCCTCTACGAAGCAAACCATCCTCA; test: as above; details: immobilised compound; not affected by 2% fetal bovine serum
# [4] = molecular target: T1, RAGE (receptor for AGEs), vRAGE (Homo sapiens, UniProt Q15109); test: 27-MHz quartz crystal microbalance, vRAGE immobilized; format: binding
# T1 construct: gene AGER
# T1 sequence (Q15109 23-116 limits assumed): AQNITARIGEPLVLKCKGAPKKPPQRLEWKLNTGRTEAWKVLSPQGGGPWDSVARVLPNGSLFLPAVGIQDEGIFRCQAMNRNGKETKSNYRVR
binding [1],KD [2] [µM],KD [3] [µM],Kd [4] [µM],Compound
no,33,2.6,,CC(=O)NC(CCCC[n+]1cc(O)cc(CO)c1)C(=O)O (racemic)
,,,59,GLAP

# Reference: publication PMC4299541 (Cardiovascular Diabetology, 2015)
